Test system: Adult human keratinocytes
Test: Telomerase expression (TRAP assay kit) in treated keratinocytes
Type: cell-based
Conditions: keratinocytes exposed to both agents in sequence: 10-25 μM 5-aza-2′-deoxycytidine for 5 days and 100-250 ng/ml trichostatin for 1 day; versus cells not exposed
Experimental: Adult human keratinocytes are obtained form Clonetics (San Diego, Calif.) and grown in Keratinocyte Growth Media in 5-10% CO2 at 37 degree C. according to the instructions “Keratinocyte System Instructions” BioWhittaker Catalogue number AA-1000. When the adult keratinocytes are about 40-80% confluent, 10-25 μM 5-aza-2′-deoxycytidine (Sigma, St Louis, Mo.) is added to the culture. After 4 days of incubation with 5-aza-2′-deoxycytidine, 100-250 ng/ml trichostatin (Sigma, St Louis, Mo.) is added to the culture. The culture is incubated for an additional day and sampled for telomerase activity.
Keratinocytes exposed to 10-25 μM 5-aza-2′-deoxycytidine for 5 days and 100-250 ng/ml trichostatin for 1 day and cells not exposed to these agents are assayed for the expression of telomerase (using a commercially available TRAP assay kit). These cells are assayed along side positive controls (HeLa and NH-12 cells) and negative controls (human foreskin fibroblasts and heated HN-12 cell extracts). Telomerase activity is measured by phosphoimaging telomeric products resolved on 12.5% […]. Telometric ladders indicative of telomerase activity, consistent with the presence of stem cells is observed in the positive controls and in the keratinocytes exposed to 10-25 μM 5-aza-2′-deoxycytidine for 5 days and 100-250 ng/ml trichostatin for 1 day.

Row | Telomerase activity (telomeric ladders) | Compound
1 | increased telomerase activity | Nc1ncn([C@H]2C[C@H](O)[C@@H](CO)O2)c(=O)n1 [5-aza-2′-deoxycytidine]
2 | increased telomerase activity | CC(/C=C/C(=O)NO)=C\[C@@H](C)C(=O)c1ccc(N(C)C)cc1 [trichostatin]
